According to US10485805B2, “Finafloxacin for use in the treatment of urinary tract infections” (MerLion Pharmaceuticals Pte. Ltd., priority 2015, dated 2019):
Values joined by “and” are separate entries in the source; they are usually repeats but may differ in a detail not shown here. Equal entries are not always repeated.

Key:
[1] = tested on: fluoroquinolone-susceptible pathogens in the urine; assay: Concentration of pathogens in the urine of patients with uncomplicated UTIs after a single oral dose; format: in vivo; details: for Bacteria per ml urine - hours after dose: 2 hours: 2 hours after oral dose of 300 mg finafloxacin or 250 mg ciprofloxacin; for Bacteria per ml urine - hours after dose: 2 hours / Bacteria per ml urine - hours after dose: 4 hours / Bacteria per ml urine - hours after dose: 8 hours: individual patients, uncomplicated UTI; for Bacteria per ml urine - hours after dose: 4 hours: 4 hours after oral dose of 300 mg finafloxacin or 250 mg ciprofloxacin; for Bacteria per ml urine - hours after dose: 8 hours: 8 hours after oral dose of 300 mg finafloxacin or 250 mg ciprofloxacin
Description: Patients with uncomplicated UTIs were treated with an oral dose of 300 mg finafloxacin or 250 mg of ciprofloxacin and the concentrations of the fluoroquinolone-susceptible pathogens in the urine were determined before and 2, 4 and 8 hours after intake of the drugs. (−bacterial titers below 10^3).

[2] = tested on: isolate (pathogen from urine of patients with uncomplicated UTI); assay: MIC of the patients' urine isolates; format: cell-based; details: ciprofloxacin MIC of each patient's isolate (patients 1-7, one line per patient)
[3] = Solubility of finafloxacin in the presence of Tris; format: physicochemical; details: compared with other buffer substances (e.g. phosphate buffer)
Description: (§1) However, Tris is herein used as solubility enhancing agent. […] Both effects lead to a completely unexpected result. Tris is therefore to be regarded as a specific tool to considerably enhance the solubility of finafloxacin in solutions. By preparing compositions comprising Tris it is possible to dissolve finafloxacin stably in such an amount therein that these compositions can effectively be used as parenteral compositions for the treatment of UTIs.

Pseudomonas aeruginosa = assay: Reduction of viable bacteria after 1 h exposure in broth adjusted to different pH values; format: cell-based; details: 1 h of incubation, inoculum 10^6 colony forming units per ml
Description: (§2) An overnight inoculum of 10^6 colony forming units per ml broth adjusted to different pH values of different pathogens was exposed to finafloxacin. Bacterial growth was determined before and after 1 h of incubation.

[4] = tested on: Stenotrophomonas maltophilia clinical isolate; assay: as above; format: cell-based; details: 1 h of incubation, inoculum 10^6 colony forming units per ml
Description: as §2

[5] = tested on: complicated UTIs or pyelonephritis; assay: Double-blind, randomized clinical study, complicated UTIs or pyelonephritis: treatment success (combined clinical and microbiological response); format: in vivo, patients; details: 17 days after start of treatment
[6] = Stability of finafloxacin solutions comprising Tris; format: physicochemical; details: compositions comprising Tris
Description: as §1

Row | SMILES | Bacteria per ml urine - hours after dose: 2 hours [1] | Bacteria per ml urine - hours after dose: 2 hours ([1]; listed as ciprofloxacin) | Bacteria per ml urine - hours after dose: 4 hours [1] | Bacteria per ml urine - hours after dose: 4 hours ([1]; listed as ciprofloxacin) | Bacteria per ml urine - hours after dose: 8 hours [1] | MIC of isolate [Cipro mg/L] [2] | Bacteria per ml urine - hours after dose: 2 hours ([1]; listed as finafloxacin) | time after intake within which pathogens are eradicated in the urine ([1]; oral formulation, patients with uncomplicated UTIs) | solubility [3] | number of viable bacteria in the medium reduced by (Pseudomonas aeruginosa; pH 5.2) | number of viable bacteria in the medium reduced by (Pseudomonas aeruginosa; pH 6.2) | number of viable bacteria in the medium reduced by (Pseudomonas aeruginosa; pH 7.2) | number of viable bacteria in the medium reduced by ([4]; pH 5.2) | number of viable bacteria in the medium reduced by ([4]; pH 7.2) | treatment success (combined clinical response and microbiological response) ([5]; overall treatment duration 5 days (3 days intravenous 800 mg daily, then oral 800 mg daily)) | treatment success (combined clinical response and microbiological response) ([5]; overall treatment duration 10 days (3 days intravenous, then 7 days oral)) | stability of solutions [6]
1 | O=C(O)c1cn(C2CC2)c2cc(N3CCNCC3)c(F)cc2c1=O [Ciprofloxacin, reference compound] | — (bacterial titers below 10^3) and 2.0 × 10^3 Bacteria per ml urine and 6.1 × 10^4 Bacteria per ml urine | above 10^3 Bacteria per ml urine | — (bacterial titers below 10^3) (2×) and 2.7 × 10^3 Bacteria per ml urine | above 10^3 Bacteria per ml urine | — (bacterial titers below 10^3) | 0.012 mg/L (3×) and 0.19 mg/L (2×) and 0.008 mg/L (2×) | – | – | – | – | – | – | – | – | – | – | –
2 | N#Cc1c(N2C[C@@H]3NCCO[C@H]3C2)c(F)cc2c(=O)c(C(=O)O)cn(C3CC3)c12 [Finafloxacin, (−)-8-cyano-1-cyclopropyl-6-fluoro-7-[(4aS,7aS)-hexahydropyrrolo[3,4-B]-1,4-oxazin-6(2H)-yl]-4-oxo-1,4-dihydroquinoline-3-carboxylic acid] | — (bacterial titers below 10^3) | – | — (bacterial titers below 10^3) | – | — (bacterial titers below 10^3) | – | below 10^3 Bacteria per ml urine | ≤ 2 h | high solubility | 98.6% | 99.3% | 99.9% | 87.4% | 99.8% | 70.3% | 67.6% | long term stability
